Data published in patent EP4745137A1 (Gluetacs Therapeutics (Shanghai) Co., Ltd., priority 2023, dated 2025).

Tests used:
Format in all cases: cell-based
Settings in all cases: 24 hours of compound treatment, 50 nM and 500 nM tested (concentration behind the class not stated)
IKZF2 = target: T1, IKZF2 (Homo sapiens, UniProt Q96SW2+Q9UKS7); experiment: Western-blot assay of substrate protein degradation in hPBMCs, IKZF2
T1 construct: endogenous in cells; host or cells: hPBMCs (Milecell Biotechnologies)
T1 sequence (Q9UKS7 whole entry): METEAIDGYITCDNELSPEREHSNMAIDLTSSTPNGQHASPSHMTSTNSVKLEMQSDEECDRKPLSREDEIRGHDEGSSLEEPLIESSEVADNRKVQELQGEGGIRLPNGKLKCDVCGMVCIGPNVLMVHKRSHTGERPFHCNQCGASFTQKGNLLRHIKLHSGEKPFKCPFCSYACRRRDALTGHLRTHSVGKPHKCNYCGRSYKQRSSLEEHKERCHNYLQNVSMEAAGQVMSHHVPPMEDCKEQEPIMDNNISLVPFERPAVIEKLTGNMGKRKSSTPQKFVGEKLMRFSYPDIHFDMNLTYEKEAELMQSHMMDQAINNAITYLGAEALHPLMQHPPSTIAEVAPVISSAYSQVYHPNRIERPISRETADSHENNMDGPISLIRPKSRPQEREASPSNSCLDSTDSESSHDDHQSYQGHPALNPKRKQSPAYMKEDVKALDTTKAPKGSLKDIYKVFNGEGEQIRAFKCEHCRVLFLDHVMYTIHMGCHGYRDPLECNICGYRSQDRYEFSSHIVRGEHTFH
T1 sequence (Q96SW2 whole entry): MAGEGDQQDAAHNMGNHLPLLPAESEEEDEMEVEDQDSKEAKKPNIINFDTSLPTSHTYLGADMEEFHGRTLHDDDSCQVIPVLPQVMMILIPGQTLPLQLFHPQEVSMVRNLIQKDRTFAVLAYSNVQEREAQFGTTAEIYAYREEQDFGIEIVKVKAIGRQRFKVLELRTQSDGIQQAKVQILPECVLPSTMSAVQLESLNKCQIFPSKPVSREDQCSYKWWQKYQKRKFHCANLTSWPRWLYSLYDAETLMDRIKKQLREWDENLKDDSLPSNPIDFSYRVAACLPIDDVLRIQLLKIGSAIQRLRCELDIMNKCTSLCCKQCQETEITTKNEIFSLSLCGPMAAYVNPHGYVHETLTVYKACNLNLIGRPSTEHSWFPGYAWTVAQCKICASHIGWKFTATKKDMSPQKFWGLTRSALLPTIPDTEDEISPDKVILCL
T1 sequence (Q16531 whole entry partner): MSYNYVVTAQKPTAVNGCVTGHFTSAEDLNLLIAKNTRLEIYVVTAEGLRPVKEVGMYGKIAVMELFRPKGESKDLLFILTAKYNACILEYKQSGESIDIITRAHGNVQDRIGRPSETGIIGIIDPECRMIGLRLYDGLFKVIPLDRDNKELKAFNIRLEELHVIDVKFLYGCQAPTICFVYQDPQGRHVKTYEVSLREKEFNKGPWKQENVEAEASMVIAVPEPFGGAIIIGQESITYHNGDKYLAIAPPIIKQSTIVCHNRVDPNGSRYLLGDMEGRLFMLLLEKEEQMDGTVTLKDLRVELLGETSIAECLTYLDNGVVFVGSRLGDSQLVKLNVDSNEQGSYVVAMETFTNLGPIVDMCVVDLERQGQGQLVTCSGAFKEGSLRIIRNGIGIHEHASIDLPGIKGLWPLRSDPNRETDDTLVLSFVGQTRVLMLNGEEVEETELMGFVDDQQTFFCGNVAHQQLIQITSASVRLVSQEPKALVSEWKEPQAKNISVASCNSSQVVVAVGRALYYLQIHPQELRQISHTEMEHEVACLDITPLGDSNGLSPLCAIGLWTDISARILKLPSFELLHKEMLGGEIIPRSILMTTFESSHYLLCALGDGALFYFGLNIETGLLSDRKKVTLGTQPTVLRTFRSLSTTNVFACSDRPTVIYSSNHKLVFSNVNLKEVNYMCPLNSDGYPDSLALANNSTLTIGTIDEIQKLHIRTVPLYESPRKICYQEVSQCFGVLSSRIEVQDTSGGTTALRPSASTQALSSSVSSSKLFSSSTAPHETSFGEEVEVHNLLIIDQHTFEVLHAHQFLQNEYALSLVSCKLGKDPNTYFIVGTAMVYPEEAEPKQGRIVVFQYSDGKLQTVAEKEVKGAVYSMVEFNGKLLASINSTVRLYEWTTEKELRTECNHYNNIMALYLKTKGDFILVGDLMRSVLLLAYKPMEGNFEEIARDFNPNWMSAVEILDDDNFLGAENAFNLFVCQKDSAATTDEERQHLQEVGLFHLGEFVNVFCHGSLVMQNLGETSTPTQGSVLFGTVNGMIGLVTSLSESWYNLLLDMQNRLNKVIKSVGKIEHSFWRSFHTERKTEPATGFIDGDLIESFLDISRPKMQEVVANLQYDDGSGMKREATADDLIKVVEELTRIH

CK1α = target: T2, CK1α (Homo sapiens, UniProt P48729+Q96SW2); experiment: Western-blot assay of substrate protein degradation in hPBMCs, CK1α
T2 construct: endogenous in cells; host or cells: hPBMCs (Milecell Biotechnologies)
T2 sequence (P48729 whole entry): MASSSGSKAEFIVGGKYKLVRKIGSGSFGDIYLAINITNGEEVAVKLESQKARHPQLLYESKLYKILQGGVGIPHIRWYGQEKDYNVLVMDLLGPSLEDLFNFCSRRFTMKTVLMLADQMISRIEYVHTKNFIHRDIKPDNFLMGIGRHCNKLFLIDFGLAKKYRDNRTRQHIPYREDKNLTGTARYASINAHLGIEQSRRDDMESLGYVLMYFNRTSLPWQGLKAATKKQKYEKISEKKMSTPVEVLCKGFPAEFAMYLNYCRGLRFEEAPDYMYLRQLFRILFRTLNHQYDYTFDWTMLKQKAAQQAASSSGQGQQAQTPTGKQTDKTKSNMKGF
T2 sequence (Q96SW2 whole entry): as the sequence (Q96SW2 whole entry) above
T2 sequence (Q16531 whole entry partner): as the sequence (Q16531 whole entry partner) above

IKZF1 = target: T3, IKZF1 (Homo sapiens, UniProt Q13422+Q96SW2); experiment: Western-blot assay of substrate protein degradation in hPBMCs, IKZF1
T3 construct: endogenous in cells; host or cells: hPBMCs (Milecell Biotechnologies)
T3 sequence (Q13422 whole entry): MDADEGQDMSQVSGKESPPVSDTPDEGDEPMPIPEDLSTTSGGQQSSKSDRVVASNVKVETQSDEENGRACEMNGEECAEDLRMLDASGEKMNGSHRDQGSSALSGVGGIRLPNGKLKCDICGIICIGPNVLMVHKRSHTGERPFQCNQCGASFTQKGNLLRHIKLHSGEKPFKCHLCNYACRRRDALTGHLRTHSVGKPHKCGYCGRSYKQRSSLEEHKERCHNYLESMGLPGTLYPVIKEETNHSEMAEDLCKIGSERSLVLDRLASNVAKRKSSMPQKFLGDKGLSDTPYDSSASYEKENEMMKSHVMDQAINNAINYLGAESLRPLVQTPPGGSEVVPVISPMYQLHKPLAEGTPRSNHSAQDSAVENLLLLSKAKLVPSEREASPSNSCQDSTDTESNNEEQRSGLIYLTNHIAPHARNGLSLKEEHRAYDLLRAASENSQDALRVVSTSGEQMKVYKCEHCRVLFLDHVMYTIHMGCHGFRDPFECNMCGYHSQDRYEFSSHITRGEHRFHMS
T3 sequence (Q96SW2 whole entry): as the sequence (Q96SW2 whole entry) above
T3 sequence (Q16531 whole entry partner): as the sequence (Q16531 whole entry partner) above

IKZF3 = target: T4, IKZF3 (Homo sapiens, UniProt Q96SW2+Q9UKT9); experiment: Western-blot assay of substrate protein degradation in hPBMCs, IKZF3
T4 construct: endogenous in cells; host or cells: hPBMCs (Milecell Biotechnologies)
T4 sequence (Q9UKT9 whole entry): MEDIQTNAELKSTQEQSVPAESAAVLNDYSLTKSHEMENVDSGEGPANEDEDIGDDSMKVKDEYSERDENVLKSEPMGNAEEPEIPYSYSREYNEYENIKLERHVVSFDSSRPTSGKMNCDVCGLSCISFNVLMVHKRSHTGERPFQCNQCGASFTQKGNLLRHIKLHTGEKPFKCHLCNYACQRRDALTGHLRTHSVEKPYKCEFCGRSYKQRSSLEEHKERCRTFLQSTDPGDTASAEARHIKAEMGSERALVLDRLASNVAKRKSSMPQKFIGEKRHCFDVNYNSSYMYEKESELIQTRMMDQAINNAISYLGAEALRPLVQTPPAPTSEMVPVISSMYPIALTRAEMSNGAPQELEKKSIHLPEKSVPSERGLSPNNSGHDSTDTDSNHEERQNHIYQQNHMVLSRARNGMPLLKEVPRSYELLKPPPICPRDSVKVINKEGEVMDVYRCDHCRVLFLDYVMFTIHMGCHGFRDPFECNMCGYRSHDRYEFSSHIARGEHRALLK
T4 sequence (Q96SW2 whole entry): as the sequence (Q96SW2 whole entry) above
T4 sequence (Q16531 whole entry partner): as the sequence (Q16531 whole entry partner) above

GSPT1 = target: T5, GSPT1 (Homo sapiens, UniProt P15170+Q96SW2); experiment: Western-blot assay of substrate protein degradation in hPBMCs, GSPT1
T5 construct: endogenous in cells; host or cells: hPBMCs (Milecell Biotechnologies)

WEE1 = target: T6, WEE1 (Homo sapiens, UniProt P30291+Q96SW2); experiment: Western-blot assay of substrate protein degradation in hPBMCs, WEE1
T6 construct: endogenous in cells; host or cells: hPBMCs (Milecell Biotechnologies)
T6 sequence (P30291 whole entry): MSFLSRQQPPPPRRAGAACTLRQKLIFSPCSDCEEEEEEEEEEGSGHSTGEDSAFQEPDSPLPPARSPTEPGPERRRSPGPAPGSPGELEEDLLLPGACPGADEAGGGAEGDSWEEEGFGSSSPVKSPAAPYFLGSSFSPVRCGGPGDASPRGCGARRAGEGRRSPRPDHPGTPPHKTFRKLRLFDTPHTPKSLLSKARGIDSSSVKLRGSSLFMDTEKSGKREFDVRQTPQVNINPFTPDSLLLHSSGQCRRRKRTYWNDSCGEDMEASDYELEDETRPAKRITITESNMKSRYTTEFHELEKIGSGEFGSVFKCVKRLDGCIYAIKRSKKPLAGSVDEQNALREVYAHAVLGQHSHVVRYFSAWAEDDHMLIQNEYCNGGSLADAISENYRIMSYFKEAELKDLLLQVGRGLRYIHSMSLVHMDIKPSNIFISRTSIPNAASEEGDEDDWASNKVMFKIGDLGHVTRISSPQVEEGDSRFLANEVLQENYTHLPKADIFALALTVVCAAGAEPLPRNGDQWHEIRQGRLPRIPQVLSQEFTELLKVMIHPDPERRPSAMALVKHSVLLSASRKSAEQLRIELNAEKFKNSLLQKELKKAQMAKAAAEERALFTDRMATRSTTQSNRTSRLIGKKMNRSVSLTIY
T6 sequence (Q96SW2 whole entry): as the sequence (Q96SW2 whole entry) above
T6 sequence (Q16531 whole entry partner): as the sequence (Q16531 whole entry partner) above

| SMILES | IKZF2 substrate protein remaining % (IKZF2) | CK1a substrate protein remaining % (CK1α) | IKZF 1 substrate protein remaining % (IKZF1) | IKZF3 substrate protein remaining % (IKZF3) | GSPT1 substrate protein remaining % (GSPT1) | Weel substrate protein remaining % (WEE1) |
| --- | --- | --- | --- | --- | --- | --- |
| O=C1CCC(N2C(=O)c3ccc(CN4CCN(c5cccc(F)c5)CC4)cc3C2=O)C(=O)N1 (stereo not drawn) [GT-06291, 2-(2,6-dioxopiperidin-3-yl)-5-((4-(3-fluorophenyl)piperazin-1-yl)methyl)isoindoline-1,3-dione] | B (80%< substrate protein remaining %≤ 100%) | B (80%< substrate protein remaining %≤ 100%) | B (80%< substrate protein remaining %≤ 100%) | B (80%< substrate protein remaining %≤ 100%) | A (0% ≤ substrate protein remaining % ≤ 80%) | B (80%< substrate protein remaining %≤ 100%) |
| O=C1CCC(N2C(=O)c3ccc(CN4CCN(c5ccc(F)cc5)CC4)cc3C2=O)C(=O)N1 (stereo not drawn) [GT-06292, 2-(2,6-dioxopiperidin-3-yl)-5-((4-(4-fluorophenyl)piperazin-1-yl)methyl)isoindoline-1,3-dione] | B (80%< substrate protein remaining %≤ 100%) | B (80%< substrate protein remaining %≤ 100%) | B (80%< substrate protein remaining %≤ 100%) | B (80%< substrate protein remaining %≤ 100%) | A (0% ≤ substrate protein remaining % ≤ 80%) | B (80%< substrate protein remaining %≤ 100%) |
| O=C1CCC(N2C(=O)c3ccc(CN4CCN(c5ccccc5Br)CC4)cc3C2=O)C(=O)N1 (stereo not drawn) [GT-06293, 5-((4-(2-bromophenyl)piperazin-1-yl)methyl)-2-(2,6-dioxopiperidin-3-yl)isoindoline-1,3-dione] | B (80%< substrate protein remaining %≤ 100%) | B (80%< substrate protein remaining %≤ 100%) | B (80%< substrate protein remaining %≤ 100%) | B (80%< substrate protein remaining %≤ 100%) | A (0% ≤ substrate protein remaining % ≤ 80%) | B (80%< substrate protein remaining %≤ 100%) |
| O=C1CCC(N2C(=O)c3ccc(CN4CCN(c5ccc(Br)cc5)CC4)cc3C2=O)C(=O)N1 (stereo not drawn) [GT-06295, 5-((4-(4-bromophenyl)piperazin-1-yl)methyl)-2-(2,6-dioxopiperidin-3-yl)isoindoline-1,3-dione] | B (80%< substrate protein remaining %≤ 100%) | B (80%< substrate protein remaining %≤ 100%) | B (80%< substrate protein remaining %≤ 100%) | B (80%< substrate protein remaining %≤ 100%) | A (0% ≤ substrate protein remaining % ≤ 80%) | B (80%< substrate protein remaining %≤ 100%) |
| Cc1ccccc1N1CCN(Cc2ccc3c(c2)C(=O)N(C2CCC(=O)NC2=O)C3=O)CC1 (stereo not drawn) [GT-06296, 2-(2,6-dioxopiperidin-3-yl)-5-((4-(o-tolyl)piperazin-1-yl)methyl)isoindoline-1,3-dione] | B (80%< substrate protein remaining %≤ 100%) | B (80%< substrate protein remaining %≤ 100%) | B (80%< substrate protein remaining %≤ 100%) | B (80%< substrate protein remaining %≤ 100%) | A (0% ≤ substrate protein remaining % ≤ 80%) | B (80%< substrate protein remaining %≤ 100%) |
| O=C1CCC(N2C(=O)c3ccc(CN4CCN(c5c(Cl)cccc5Cl)CC4)cc3C2=O)C(=O)N1 (stereo not drawn) [GT-06297, 5-((4-(2,6-dichlorophenyl)piperazin-1-yl)methyl)-2-(2,6-dioxopiperidin-3-yl)isoindoline-1,3-dione] | B (80%< substrate protein remaining %≤ 100%) | B (80%< substrate protein remaining %≤ 100%) | B (80%< substrate protein remaining %≤ 100%) | B (80%< substrate protein remaining %≤ 100%) | A (0% ≤ substrate protein remaining % ≤ 80%) | B (80%< substrate protein remaining %≤ 100%) |
| O=C1CCC(N2C(=O)c3ccc(CN4CCN(c5ccc(Cl)c(Cl)c5)CC4)cc3C2=O)C(=O)N1 (stereo not drawn) [GT-06298, 5-((4-(3,4-dichlorophenyl)piperazin-1-yl)methyl)-2-(2,6-dioxopiperidin-3-yl)isoindoline-1,3-dione] | B (80%< substrate protein remaining %≤ 100%) | B (80%< substrate protein remaining %≤ 100%) | B (80%< substrate protein remaining %≤ 100%) | B (80%< substrate protein remaining %≤ 100%) | A (0% ≤ substrate protein remaining % ≤ 80%) | B (80%< substrate protein remaining %≤ 100%) |
| O=C1CCC(N2C(=O)c3ccc(CN4CCN(c5cc(Cl)cc(Cl)c5)CC4)cc3C2=O)C(=O)N1 (stereo not drawn) [GT-06299, 5-((4-(3,5-dichlorophenyl)piperazin-1-yl)methyl)-2-(2,6-dioxopiperidin-3-yl)isoindoline-1,3-dione] | B (80%< substrate protein remaining %≤ 100%) | B (80%< substrate protein remaining %≤ 100%) | B (80%< substrate protein remaining %≤ 100%) | B (80%< substrate protein remaining %≤ 100%) | A (0% ≤ substrate protein remaining % ≤ 80%) | B (80%< substrate protein remaining %≤ 100%) |
| O=C1CCC(N2C(=O)c3ccc(CN4CCN(c5cccc(F)c5F)CC4)cc3C2=O)C(=O)N1 (stereo not drawn) [GT-06300, 5-((4-(2,3-difluorophenyl)piperazin-1-yl)methyl)-2-(2,6-dioxopiperidin-3-yl)isoindoline-1,3-dione] | B (80%< substrate protein remaining %≤ 100%) | B (80%< substrate protein remaining %≤ 100%) | B (80%< substrate protein remaining %≤ 100%) | B (80%< substrate protein remaining %≤ 100%) | A (0% ≤ substrate protein remaining % ≤ 80%) | B (80%< substrate protein remaining %≤ 100%) |
| O=C1CCC(N2C(=O)c3ccc(CN4CCN(c5ncnc6sccc56)CC4)cc3C2=O)C(=O)N1 (stereo not drawn) [GT-06303, 2-(2,6-dioxopiperidin-3-yl)-5-((4-(thieno[2,3-d]pyrimidin-4-yl)piperazin-1-yl)methyl)isoindoline-1,3-dione] | B (80%< substrate protein remaining %≤ 100%) | B (80%< substrate protein remaining %≤ 100%) | A (0% ≤ substrate protein remaining % ≤ 80%) | B (80%< substrate protein remaining %≤ 100%) | B (80%< substrate protein remaining %≤ 100%) | B (80%< substrate protein remaining %≤ 100%) |
| Cc1cc2c(N3CCN(Cc4ccc5c(c4)C(=O)N(C4CCC(=O)NC4=O)C5=O)CC3)ncnc2s1 (stereo not drawn) [GT-06305, 2-(2,6-dioxopiperidin-3-yl)-5-((4-(6-methylthieno[2,3-d]pyrimidin-4-yl)piperazin-1-yl)methyl)isoindoline-1,3-dione] | B (80%< substrate protein remaining %≤ 100%) | A (0% ≤ substrate protein remaining % ≤ 80%) | B (80%< substrate protein remaining %≤ 100%) | B (80%< substrate protein remaining %≤ 100%) | B (80%< substrate protein remaining %≤ 100%) | B (80%< substrate protein remaining %≤ 100%) |
| Cc1sc2ncnc(N3CCN(Cc4ccc5c(c4)C(=O)N(C4CCC(=O)NC4=O)C5=O)CC3)c2c1C (stereo not drawn) [GT-06307, 5-((4-(5,6-dimethylthieno[2,3-d]pyrimidin-4-yl)piperazin-1-yl)methyl)-2-(2,6-dioxopiperidin-3-yl)isoindoline-1,3-dione] | A (0% ≤ substrate protein remaining % ≤ 80%) | A (0% ≤ substrate protein remaining % ≤ 80%) | A (0% ≤ substrate protein remaining % ≤ 80%) | B (80%< substrate protein remaining %≤ 100%) | A (0% ≤ substrate protein remaining % ≤ 80%) | B (80%< substrate protein remaining %≤ 100%) |
| Cc1sc2ncnc(N3CCCN(Cc4ccc5c(c4)C(=O)N(C4CCC(=O)NC4=O)C5=O)CC3)c2c1C (stereo not drawn) [GT-06308, 5-((4-(5,6-dimethylthieno[2,3-d]pyrimidin-4-yl)-1,4-diazepan-1-yl)methyl)-2-(2,6-dioxopiperidin-3-yl)isoindoline-1,3-dione] | A (0% ≤ substrate protein remaining % ≤ 80%) | B (80%< substrate protein remaining %≤ 100%) | A (0% ≤ substrate protein remaining % ≤ 80%) | B (80%< substrate protein remaining %≤ 100%) | B (80%< substrate protein remaining %≤ 100%) | B (80%< substrate protein remaining %≤ 100%) |
